Measurements from patent publication US8552064B2, “Suramin and derivatives thereof as topical microbicide and contraceptive” (Eastern Virginia Medical School, priority 2005, dated 2013).
Converted amounts (≈) assume the structure as drawn.

Legend:
[1] = biological target: sheep testicular hyaluronidase (Ovis aries, UniProt A0ACI6NV18); test: Hyaluronic acid hydrolysis assay; format: biochemical
Excerpt: A hyaluronic acid hydrolysis assay was used to assess the hyaluronidase inhibition properties of suramin sodium. Hyaluronidase is a critical sperm enzyme involved in cumulus penetration. Inhibition of this enzyme renders sperm incapable of transversing the egg vestments, thus impeding sperm-oocyte interaction and, ultimately, fertilization.
Hyaluronidase activity was quantitatively determined by measuring the extent of hyaluronic acid hydrolysis (i.e., the concentration of N-acetylglucosamine-reactive material formed from enzyme activity). Reaction mixtures containing the following were prepared: test compound (variable concentrations of suramin sodium); 0.1 M sodium acetate; 0.15 M sodium chloride; pH adjusted to 5.5; 7.2 units sheep testicular hyaluronidase (Sigma, Type III; H-2251) contained in an acetate buffer; 0.3 mg/ml hyaluronic acid (Sigma, from bovine vitreous humor; H-7630). The enzyme was preincubated with the test agent (1 mg/ml for screening purposes) for 10 minutes before starting the reaction by the addition of hyaluronic acid. The enzyme reaction was determined using the method of Aronson and Davidson (J. Biol. Chem. 241 437-40, 1967). […] The reaction product is determined calorimetrically with […] (Reissig et al., J. Biol. Chem. 217 959-966, […]) by measuring the absorbance at 545 nm.

[2] = test system: human sperm binding to zona pellucida; test: Hemizona assay (HZA), human sperm-zona binding; format: cell-based
Procedure: The hemizona assay, as described in Burkman L. J., et al., Fertil. Steril., 49: 688-697 (1988), was used to measure the ability of sperm to undergo capacitation and bind to the zona pellucida of an oocyte. Briefly, in this assay, motile normal sperm were separated in media with bovine serum albumin, which triggers capacitation. Human motile sperm were separated using a swim-up technique and incubated with 1 mM suramin or solvent-control medium for 15 minutes in 100 μL medium droplets covered with mineral oil, at 37° C., 5% CO2. Sperm were then incubated with dead oocytes which are surrounded by the zona pellucida, an acellular coating of oocytes. Bisected hemizonae corresponding to one oocyte were placed each in the test (suramin) and control (solvent) droplets and incubated for an additional 4 hours. Sperm-hemizonae complexes were washed extensively and capacitated spermatozoa bound to the outer surface of the zonae and were counted under an inverted microscope. The Hemizona Index (HZI) was calculated by dividing the number of suramin-treated sperm bound to one hemizona by the number of untreated (control) sperm bound to the other hemizona.

[3] = test system: human vaginal cell line (VK2); format: cell-based
Procedure: Vaginal cytotoxicity was determined by 3-[4,5-dimethylthiazol-2-yl]-2,5-diphenyl tetrazolium bromide (MTT) assay and cytokine assays, both as described in Fichorova R. N. et al., J. Infect. Dis. 184(4): 418-28, 2001). The MTT assay assesses the cytotoxicity of various compounds against cell lines by plating the desired cells prior to exposure to the compounds. On the day of treatment, culture medium was carefully aspirated from the wells and replaced with fresh medium containing the test compound at various concentrations. The cells were incubated with the various compounds for 6 hours, washed with fresh medium and MTT was then added and the plates were incubated at 37° C. for a period of time sufficient to allow MTT to form formazan crystals by reacting with metabolically active cells. The formazan crystals were solubilized overnight at 37° C. in a solution containing 10% SDS in 0.01 M HCl. The absorbance of each well was measured in a microplate reader (Dynex) at 540 nm and a reference wavelength of 690 nm.

[4] = test system: Chlamydia trachomatis (serotype E/UW-5/CX); test: Chlamydia multiplication inhibition; format: cell-based
Procedure: Chlamydia multiplication inhibition was performed according to Cooper M. D. et al., J. Gen. Microbiol., 136: 1109-1115 (1990). Prior to experimentation, cryo-preserved Chlamydia trachomatis (serotype E/UW-5/CX) were quickly thawed (37° C.) and suspended by mild sonication. Serial 1:10 dilutions of the bacterial suspension were made, ranging from 10^−1 to 10^−7.
HeLa monolayers (on coverslips) were inoculated with 100 μl of the different dilutions of chlamydia (elementary bodies), in the presence or absence of test agent. The suramin compound was tested at 0.1, 1.0, 10, 100 and 1000 μg/ml. After 1 hour, the monolayers were washed to remove free chlamydia and test agent, and they were incubated for 48 hours.
Medium was removed, and the HeLa monolayers were fixed in methanol, washed, and treated with Kallsted Chlamydia Culture Confirmation fluorescein-conjugated Monoclonal Antibody. Reaction of labeled antibody with the cells was carried out for 30 minutes at room temperature (i.e., 25° C.) (no light) in a humidified chamber. The cells were washed with water; a drop of mounting medium is placed on a glass slide, and the coverslip was applied. Inclusions due to chlamydial infection were visualized with a fluorescent microscope as green fluorescence. Data was reported as the number of inclusion forming units per ml of undiluted chlamydial titer, and were adjusted to control values of 2.6×10^7 IFU/ml for control cultures (no test agent) in each experiment. […] After logarithmic transformation of all data, dose-response curves were created with curve-fitting (TableCurve 2D, version 3.02; Jandel Scientific) software.

[5] = test system: CaSki cells; test: Cytotoxicity in the anti-herpes study; format: cell-based, human; conditions: highest concentration tested (1000 μg/mL)

sheep testicular hyaluronidase, sequence (A0ACI6NV18 entry or part of it): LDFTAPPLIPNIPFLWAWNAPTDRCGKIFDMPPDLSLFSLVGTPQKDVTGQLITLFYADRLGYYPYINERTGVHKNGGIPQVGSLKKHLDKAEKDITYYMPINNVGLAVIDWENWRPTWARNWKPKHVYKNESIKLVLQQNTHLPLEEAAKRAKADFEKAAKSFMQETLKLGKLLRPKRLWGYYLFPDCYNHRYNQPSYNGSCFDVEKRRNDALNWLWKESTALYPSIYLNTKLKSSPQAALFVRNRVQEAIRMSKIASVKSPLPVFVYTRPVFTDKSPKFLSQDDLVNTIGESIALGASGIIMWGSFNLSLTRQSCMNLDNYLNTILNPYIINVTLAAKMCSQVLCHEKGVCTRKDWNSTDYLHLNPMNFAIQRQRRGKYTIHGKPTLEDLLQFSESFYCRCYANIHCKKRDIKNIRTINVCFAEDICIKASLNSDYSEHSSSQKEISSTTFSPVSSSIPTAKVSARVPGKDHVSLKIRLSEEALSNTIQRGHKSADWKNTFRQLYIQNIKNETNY

`Cc1ccc(C(=O)Nc2ccc(S(=O)(=O)O)c3cc(S(=O)(=O)O)cc(S(=O)(=O)O)c23)cc1NC(=O)c1cccc(NC(=O)Nc2cccc(C(=O)Nc3cc(C(=O)Nc4ccc(S(=O)(=O)O)c5cc(S(=O)(=O)O)cc(S(=O)(=O)O)c45)ccc3C)c2)c1` [Suramin, 8,8′-(carbonylbis(imino-3,1-phenylenecarbonylimino(4-methyl-3,1-phenylene)carbonylimino))bis-1,3,5-naphthalene trisulfonic acid] was tested, and the “Potency, Hyaluronidase (Hyaluronic Acid Hydrolysis)” value [1] was “High”, the “Potency, ZP binding (HZA)” value [2] was “High” and the “Hemizona Index (HZI)” value ([2]; 1 mM, n=9) was 0.08±0.01. The inhibition at 1000 µM ([2]; Homo sapiens, Sperm, 1 mM) was 92%, the “cytotoxicity in comparative study” value [3] was “the least cytotoxic of them all” and the “Potency, Chlamydia (CT) Multiplication” value [4] was “High”. The “inhibition of CT multiplication” value ([4]; 2 mg/mL) was “inhibition was essentially complete”, the titer ([4]; 2 mg/mL, control titer 1×10^−5) was 0.08×10^−5 and the inhibition at 100 µg/mL ([4]; Chlamydia trachomatis, read-out: inhibition of CT multiplication) was 75%. The inhibition at 2000 µg/mL ([4]; Chlamydia trachomatis, 2 mg/mL, read-out: inhibition of CT multiplication) was 100%, the IC50 ([4]; Chlamydia trachomatis, read-out: IC50 Chlamydia (CT) Multiplication) was 28 mg/L (≈ 21.6 µM) and the cytotoxicity [5] was “not being significantly cytotoxic”.
